# Data from US20130060013A1, “Compounds useful for treating neurodegenerative disorders” (SATORI PHARMACEUTICALS, INC., priority 2011, published 2013).
# Columns and labels:
# Type in all cases: cell-based
# Conditions in all cases: Homo sapiens, compound 5 hours at 37° C., 1% DMSO, percent vehicle fit to 4 parameter curve
# Aβ-40 = Aβ-40 level in conditioned media of 2B7 cells (MSD 3-PLEX ELISA)
# Method: (§1) Assays were conducted to determine the ability of a Compound of Formula I to modulate […], and Aβ-38.
# Human (6E10) Ab 3-PLEX elisa kits were purchased from Meso Scale Discovery Labs, 9328 Gaither Road, Gaithersburg, Md. 20877 (Catalog Number K15148E-3). Plates with capture antibodies were blocked for 1-2 hours at room temperature with 150 μL of the manufactures blocking reagent.
# (§2) Cultured 2B7 cells in 96 well plate with 250 uL of media per well until confluent;
# (§3) Prepared serial dilutions of compounds in DMSO at 100× the final desired concentration;
# (§4) Washed wells with 2B7 cells 1× with 250 uL of media;
# (§5) Diluted DMSO stocks 1:100 into media:
# (§6) Added 250 μL of media containing compounds (1% DMSO) to wells with 2B7 cells for 5 hours at 37° C.
# (§7) Diluted conditioned media: 1 part media with 1% DMSO and 1 part blocking buffer;
# (§8) 150 μL of the 250 μL of conditioned media were used.
# (§9) Standard Curve Sample Prep:
# (§10) Prepared per manufacturer's protocol (see above)
# (§11) Seven point standard curve samples were prepared that contained Aβ-42, Aβ-40, and Aβ-38. The highest concentration of Aβ-42 and Aβ-38 was 3,000 pg/mL and the highest concentration of Aβ-40 was 10,000 pg/mL. Subsequent serial dilutions were 1:3 and the final composition of each sample was 1 part blocking buffer and 1 part cell medium containing 1% DMSO.
# (§12) Overnight Sample Incubation:
# (§13) Blocked plates are washed 5× with MSD wash buffer with a plate washer
# (§14) 25 uL of detection antibody and blocker G reagent in MSD blocking solution is added
# (§15) 25 uL of samples (1 part conditioned media containing 1% DMSO and 1 part MSD blocking buffer) are then added.
# (§16) plates are incubated overnight at 4 degrees C. or 2 hours at room temp
# (§17) Wash wells 5× with MSD wash buffer
# (§18) Added 150 μL 2×MSD read buffer
# (§19) A-Beta peptide levels for each peptide are calculated from the standard curve using the MSD software provided with the MSD 2400 Imager. Percent vehicle values for each compound dosage were then calculated and fit to a 4 parameter curve generating IC50 values.
# Aβ-38 = Aβ-38 level in conditioned media of 2B7 cells (MSD 3-PLEX ELISA)
# Method: as §1
# (§20) Plates with capture antibodies were blocked for 1-2 hours at room temperature with 150 μL of the manufactures blocking reagent.
# as §2, §3, §4, §5, §6, §7, §8, §9, §10, §11, §12, §13, §14, §15, §16, §17, §18, §19
# Aβ-42 = Aβ-42 level in conditioned media of 2B7 cells (MSD 3-PLEX ELISA)
# Method: as §1, §20, §2, §3, §4, §5, §6, §7, §8, §9, §10, §11, §12, §13, §14, §15, §16, §17, §18, §19
Structure (SMILES),IC50 (Aβ-40),IC50 (Aβ-38),IC50 (Aβ-42)
CCO[C@@H]([C@H]1C[C@@H](C)[C@H]2[C@H](O1)[C@H](O)[C@@]1(C)[C@@H]3CC[C@H]4C(C)(C)[C@@H](O[C@H]5CN(C(=O)CNS(=O)(=O)C(F)(F)F)CCO5)CCC45C[C@@]35CC[C@]21C)C(C)(C)O (stereo partly drawn),1000 to 10000 nM,< 1000 nM,< 1000 nM
CCO[C@@H]([C@H]1C[C@@H](C)[C@H]2[C@H](O1)[C@H](O)[C@@]1(C)[C@@H]3CC[C@H]4C(C)(C)[C@@H](O[C@H]5CN(C6(C)COC6)CCO5)CCC45C[C@@]35CC[C@]21C)C(C)(C)O (stereo partly drawn),1000 to 10000 nM,< 1000 nM,< 1000 nM
CO[C@@H]([C@H]1C[C@@H](C)[C@H]2[C@H](O1)[C@H](O)[C@@]1(C)[C@@H]3CC[C@H]4C(C)(C)[C@@H](O[C@H]5CN(C6CNC6)CCO5)CCC45C[C@@]35CC[C@]21C)C(C)(C)O (stereo partly drawn),1000 to 10000 nM,< 1000 nM,< 1000 nM
CCO[C@@H]([C@H]1C[C@@H](C)[C@H]2[C@H](O1)[C@H](O)[C@@]1(C)[C@@H]3CC[C@H]4C(C)(C)[C@@H](O[C@H]5CN(CCCO)CCO5)CCC45C[C@@]35CC[C@]21C)C(C)(C)O (stereo partly drawn),1000 to 10000 nM,1000 to 10000 nM,< 1000 nM
CCO[C@@H]([C@H]1C[C@@H](C)[C@H]2[C@H](O1)[C@H](O)[C@@]1(C)[C@@H]3CC[C@H]4C(C)(C)[C@@H](OC(=O)[C@@H]5CCCN5)CCC45C[C@@]35CC[C@]21C)C(C)(C)O (stereo partly drawn),1000 to 10000 nM,< 1000 nM,< 1000 nM
CCO[C@@H]([C@H]1C[C@@H](C)[C@H]2[C@H](O1)[C@H](O)[C@@]1(C)[C@@H]3CC[C@H]4C(C)(C)[C@@H](OC(=O)[C@@H]5CCCN5C)CCC45C[C@@]35CC[C@]21C)C(C)(C)O (stereo partly drawn),1000 to 10000 nM,< 1000 nM,< 1000 nM
CCO[C@@H]([C@H]1C[C@@H](C)[C@H]2[C@H](O1)[C@H](O)[C@@]1(C)[C@@H]3CC[C@H]4C(C)(C)[C@@H](OC(=O)C5CCN5C(=O)OC(C)(C)C)CCC45C[C@@]35CC[C@]21C)C(C)(C)O (stereo partly drawn),1000 to 10000 nM,1000 to 10000 nM,< 1000 nM
CCO[C@@H]([C@H]1C[C@@H](C)[C@H]2[C@H](O1)[C@H](O)[C@@]1(C)[C@@H]3CC[C@H]4C(C)(C)[C@@H](OC(=O)C5CCN5)CCC45C[C@@]35CC[C@]21C)C(C)(C)O (stereo partly drawn),1000 to 10000 nM,< 1000 nM,< 1000 nM
CCO[C@@H]([C@H]1C[C@@H](C)[C@H]2[C@H](O1)[C@H](O)[C@@]1(C)[C@@H]3CC[C@H]4C(C)(C)[C@@H](OC(=O)C5CCN5C)CCC45C[C@@]35CC[C@]21C)C(C)(C)O (stereo partly drawn),> 10000 nM,1000 to 10000 nM,< 1000 nM
CCO[C@@H]([C@H]1C[C@@H](C)[C@H]2[C@H](O1)[C@H](O)[C@@]1(C)[C@@H]3CC[C@H]4C(C)(C)[C@@H](O[C@H]5CN(CC6CN(C(C)=O)C6)CCO5)CCC45C[C@@]35CC[C@]21C)C(C)(C)O (stereo partly drawn),1000 to 10000 nM,1000 to 10000 nM,< 1000 nM
CCO[C@@H]([C@H]1C[C@@H](C)[C@H]2[C@H](O1)[C@H](O)[C@@]1(C)[C@@H]3CC[C@H]4C(C)(C)[C@@H](OC(=O)[C@H]5COCCN5)CCC45C[C@@]35CC[C@]21C)C(C)(C)O (stereo partly drawn),1000 to 10000 nM,< 1000 nM,< 1000 nM
CCO[C@@H]([C@H]1C[C@@H](C)[C@H]2[C@H](O1)[C@H](O)[C@@]1(C)[C@@H]3CC[C@H]4C(C)(C)[C@@H](OC(=O)[C@@H]5COCCN5)CCC45C[C@@]35CC[C@]21C)C(C)(C)O (stereo partly drawn),1000 to 10000 nM,< 1000 nM,< 1000 nM
CCO[C@@H]([C@H]1C[C@@H](C)[C@H]2[C@H](O1)[C@H](O)[C@@]1(C)[C@@H]3CC[C@H]4C(C)(C)[C@@H](OC(=O)c5cccnc5)CCC45C[C@@]35CC[C@]21C)C(C)(C)O (stereo partly drawn),> 10000 nM,< 1000 nM,< 1000 nM
CCO[C@@H]([C@H]1C[C@@H](C)[C@H]2[C@H](O1)[C@H](O)[C@@]1(C)[C@@H]3CC[C@H]4C(C)(C)[C@@H](OC(=O)[C@H]5CNCCO5)CCC45C[C@@]35CC[C@]21C)C(C)(C)O (stereo partly drawn),1000 to 10000 nM,< 1000 nM,< 1000 nM
CCO[C@@H]([C@H]1C[C@@H](C)[C@H]2[C@H](O1)[C@H](O)[C@@]1(C)[C@@H]3CC[C@H]4C(C)(C)[C@@H](OC(=O)[C@H]5COCCN5CCOC)CCC45C[C@@]35CC[C@]21C)C(C)(C)O (stereo partly drawn),1000 to 10000 nM,< 1000 nM,< 1000 nM
CCO[C@@H]([C@H]1C[C@@H](C)[C@H]2[C@H](O1)[C@H](O)[C@@]1(C)[C@@H]3CC[C@H]4C(C)(C)[C@@H](OC(=O)[C@H]5CCCN5)CCC45C[C@@]35CC[C@]21C)C(C)(C)O (stereo partly drawn),1000 to 10000 nM,< 1000 nM,< 1000 nM
CCO[C@@H]([C@H]1C[C@@H](C)[C@H]2[C@H](O1)[C@H](O)[C@@]1(C)[C@@H]3CC[C@H]4C(C)(C)[C@@H](OC(=O)C5CN(CCOC)C5)CCC45C[C@@]35CC[C@]21C)C(C)(C)O (stereo partly drawn),1000 to 10000 nM,< 1000 nM,< 1000 nM
CCO[C@@H]([C@H]1C[C@@H](C)[C@H]2[C@H](O1)[C@H](O)[C@@]1(C)[C@@H]3CC[C@H]4C(C)(C)[C@@H](OC(=O)[C@H]5CCCN5C)CCC45C[C@@]35CC[C@]21C)C(C)(C)O (stereo partly drawn),1000 to 10000 nM,< 1000 nM,< 1000 nM
CCO[C@@H]([C@H]1C[C@@H](C)[C@H]2[C@H](O1)[C@H](O)[C@@]1(C)[C@@H]3CC[C@H]4C(C)(C)[C@@H](OC(=O)[C@@H]5COCCN5C(C)C)CCC45C[C@@]35CC[C@]21C)C(C)(C)O (stereo partly drawn),> 10000 nM,1000 to 10000 nM,< 1000 nM
CCO[C@@H]([C@H]1C[C@@H](C)[C@H]2[C@H](O1)[C@H](O)[C@@]1(C)[C@@H]3CC[C@H]4C(C)(C)[C@@H](OC(=O)[C@@H]5C[C@@H](O)CN5)CCC45C[C@@]35CC[C@]21C)C(C)(C)O (stereo partly drawn),1000 to 10000 nM,< 1000 nM,< 1000 nM
CCO[C@@H]([C@H]1C[C@@H](C)[C@H]2[C@H](O1)[C@H](O)[C@@]1(C)[C@@H]3CC[C@H]4C(C)(C)[C@@H](OC(=O)[C@@H]5C[C@@H](O)CN5C)CCC45C[C@@]35CC[C@]21C)C(C)(C)O (stereo partly drawn),1000 to 10000 nM,< 1000 nM,< 1000 nM
CCO[C@@H]([C@H]1C[C@@H](C)[C@H]2[C@H](O1)[C@H](O)[C@@]1(C)[C@@H]3CC[C@H]4C(C)(C)[C@@H](O[C@H]5CN(CCO)CCO5)CCC45C[C@@]35CC[C@]21C)C(C)(C)O (stereo partly drawn),1000 to 10000 nM,< 1000 nM,< 1000 nM
CCO[C@@H]([C@H]1C[C@@H](C)[C@H]2[C@H](O1)[C@H](O)[C@@]1(C)[C@@H]3CC[C@H]4C(C)(C)[C@@H](OC(=O)C5CNC5)CCC45C[C@@]35CC[C@]21C)C(C)(C)O (stereo partly drawn),1000 to 10000 nM,< 1000 nM,< 1000 nM
CCO[C@@H]([C@H]1C[C@@H](C)[C@H]2[C@H](O1)[C@H](O)[C@@]1(C)[C@@H]3CC[C@H]4C(C)(C)C(O[C@H]5CN(CCNC(=O)CCOCCOCCNC(=O)CCCCC6SC[C@@H]7NC(=O)N[C@H]67)CCO5)CC[C@@]45CC35CC[C@]21C)C(C)(C)O (stereo partly drawn),> 10000 nM,1000 to 10000 nM,1000 to 10000 nM
CCO[C@@H]([C@H]1C[C@@H](C)[C@H]2[C@H](O1)[C@H](O)[C@@]1(C)[C@@H]3CC[C@H]4C(C)(C)C(O[C@H]5CN(CCCNCCCOCCOCCOCCCNC(=O)CCCCC6SC[C@@H]7NC(=O)N[C@H]67)CCO5)CC[C@@]45CC35CC[C@]21C)C(C)(C)O (stereo partly drawn),1000 to 10000 nM,< 1000 nM,< 1000 nM
CCO[C@@H]([C@H]1C[C@@H](C)[C@H]2[C@H](O1)[C@H](O)[C@@]1(C)[C@@H]3CC[C@H]4C(C)(C)C(O[C@H]5CN(CCNC(=O)CCC6(C)N=N6)CCO5)CC[C@@]45CC35CC[C@]21C)C(C)(C)O (stereo partly drawn),> 10000 nM,< 1000 nM,< 1000 nM
CCO[C@@H]([C@H]1C[C@@H](C)[C@H]2[C@H](O1)[C@H](O)[C@@]1(C)[C@@H]3CC[C@H]4C(C)(C)C(O[C@H]5CN(CCNCCCOCCOCCOCCCNC(=O)CCCCC6SC[C@@H]7NC(=O)N[C@H]67)CCO5)CC[C@@]45CC35CC[C@]21C)C(C)(C)O (stereo partly drawn),1000 to 10000 nM,< 1000 nM,< 1000 nM
